The assay is described as follows: TC71 Ewing sarcoma cell viability loss – luminescence, retest at dose, dry powder, confirmation (AID 743477). The following applies: TC71 Ewing sarcoma viability, CellTiter-Glo ATP, 72 h; at 1.6 µM (top of the series). A general note: Cellular ATP, detected with luciferase, serves as a proxy for viable cell number.

Calls of active or inactive are those of the source.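 The calls were made as follows: active = fitted curve drops to -35% activity change at a dose no higher than twice the top valid tested dose; inconclusive = no clear call, values can overlap the other calls; inactive = the rest, including effects opposite to the expected drop.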

As to `CCN(CCO)CCCOc1ccc2c(Nc3cc(CC(=O)Nc4cccc(F)c4)[nH]n3)ncnc2c1`, the activity change, negative = cytotoxicity is -35.4% (inactive).
